Results: the Deep4Chem optical property database

Assay: solvent given as SMILES

O=P1(c2ccccc2)c2ccc(N3c4ccccc4Oc4ccccc43)cc2-c2cc(N3c4ccccc4Oc4ccccc43)ccc21
absorption maximum (in Cc1ccccc1): 405 nm | absorption maximum (in c1ccc2c(c1)c1ccccc1n2-c1ccc(-c2ccc(-n3c4ccccc4c4ccccc43)cc2)cc1): 404.2 nm

COc1c2ccccc2c(OC)c2c(C#CC(C)(C)C)c3cc4ccccc4cc3c(C#CC(C)(C)C)c12
absorption maximum (in ClCCl): 672 nm

C=CCOC(=O)C(C#N)=C1C=C(/C=C/c2ccc(N(C)C)cc2)OC(/C=C/c2ccc(N(C)C)cc2)=C1
absorption maximum (in C1CCOC1): 470 nm | absorption maximum (in C1COCCO1): 462 nm | absorption maximum (in CC#N): 476 nm | absorption maximum (in CN(C)C=O): 486 nm | absorption maximum (in Cc1ccccc1): 467 nm | absorption maximum (in ClC(Cl)Cl): 479 nm | absorption maximum (in ClCCCl): 482 nm | absorption maximum (in ClCCl): 481 nm

COC(=O)c1ccc2c3ccc(C(=O)OC)c4c(C(=O)OC)ccc(c5ccc(C(=O)OC)c1c25)c43
absorption maximum (in C1COCCO1): 470 nm | absorption maximum (in CC#N): 465 nm | absorption maximum (in CC(C)=O): 465 nm | absorption maximum (in CC(C)O): 476 nm | absorption maximum (in CCCCO): 476 nm | absorption maximum (in CN(C)C=O): 468 nm | absorption maximum (in CO): 465 nm | absorption maximum (in ClC(Cl)Cl): 469 nm

COc1ccc2cc(-c3ccc(C)cc3)c(=O)oc2c1
absorption maximum (in C1CCOC1): 342 nm | absorption maximum (in CCCCCC): 338 nm | absorption maximum (in CCO): 342 nm | absorption maximum (in CS(C)=O): 345 nm

CN(C)c1ccc(C2=Nc3sc4cc(F)ccc4[n+]3[B-](F)(F)O2)cc1
absorption maximum (in C1CCOC1): 425 nm | absorption maximum (in CC#N): 422 nm | absorption maximum (in CC(C)=O): 426 nm | absorption maximum (in Cc1ccccc1): 423 nm | absorption maximum (in ClCCl): 425 nm

Cc1ccc(-c2ccc(/C=C/c3ccc(N(C)C)cc3)cn2)nc1
absorption maximum (in CC#N): 383 nm

N#CC(C#N)=C(c1ccc(N(c2ccccc2)c2ccccc2)cc1)c1ccc(N(c2ccccc2)c2ccccc2)cc1
absorption maximum (in C1CCCCC1): 367.21 nm | absorption maximum (in CC(C)=O): 370.45 nm | absorption maximum (in CN(C)C=O): 374.03 nm | absorption maximum (in Cc1ccccc1): 374.03 nm | absorption maximum (in ClC(Cl)Cl): 381.49 nm

c1ccc(-c2cc(-c3ccc4ccc5cccc6ccc3c4c56)ccn2)nc1
absorption maximum (in C1CCOC1): 344 nm | absorption maximum (in CC#N): 342.99 nm | absorption maximum (in CCC#N): 342.99 nm | absorption maximum (in CCCC#N): 344 nm | absorption maximum (in CCCCCC): 342 nm | absorption maximum (in CCCO): 342.99 nm | absorption maximum (in CCO): 342.99 nm | absorption maximum (in CO): 342.99 nm | absorption maximum (in Cc1ccccc1): 342.99 nm

FC(F)(F)C(F)(F)C(F)(F)C1=NC2=C(Br)C=C3c4cc(Br)c5nc(C(F)(F)C(F)(F)C(F)(F)F)nc6c(Br)cc(c4c56)=C4C=C(Br)C(=N1)C2C34 (stereo not drawn)
absorption maximum (in C1CCOC1): 475 nm

CCCCC(CC)Cn1c2cc(-c3ccc(N(c4ccccc4)c4ccccc4)cc3)c(C#N)cc2c2cc(C#N)c(-c3ccc(N(c4ccccc4)c4ccccc4)cc3)cc21 (stereo not drawn)
absorption maximum (in ClCCl): 369 nm

COc1cc(/C=C/C(=O)O)ccc1O
absorption maximum (in O): 287 nm

CCN(CC)c1ccc2c(c1)oc(=O)c1c(=O)oc3cc(C#Cc4ccc(N(C)C)cc4)ccc3c12
absorption maximum (in CS(C)=O): 468 nm | absorption maximum (in ClCCl): 459 nm

CC(C)(C)NC1=C2C=CC=[N+]2[B-](F)(F)n2cccc21
absorption maximum (in C1CCCCC1): 428 nm | absorption maximum (in CC(C)=O): 409.5 nm | absorption maximum (in CCO): 412.5 nm | absorption maximum (in CCOC(C)=O): 412 nm | absorption maximum (in CO): 410 nm | absorption maximum (in OCC(F)(F)F): 406 nm

FC(F)(F)c1ccc2oc3nc4oc5ccc(-n6c7ccccc7c7ccccc76)cc5c4cc3c2c1
absorption maximum (in ClC(Cl)Cl): 342 nm

CCN(CC)c1ccc(/N=N/c2nc3ccc(OC)cc3s2)cc1
absorption maximum (in CC#N): 515 nm | absorption maximum (in ClCCl): 517 nm

CCOC(=O)C1=C(C(=O)OC)N2CCc3cc(OC)c(OC)cc3C2=C[C@H](c2ccc(Cl)cc2)C12c1ccccc1-c1ccccc12
absorption maximum (in ClCCl): 310 nm

CC(C)(C)c1ccc2c(c1)c1cc(C(C)(C)C)ccc1n2-c1ccc(-c2nc3c(C#N)ccc(C#N)c3nc2-c2ccc(-n3c4ccc(C(C)(C)C)cc4c4cc(C(C)(C)C)ccc43)cc2)cc1
absorption maximum (in Cc1ccccc1): 467 nm

Cc1cccc(C)c1
absorption maximum (in C1CCCCC1): 259.74 nm

CCN(CC)c1ccc2cc(-c3nc4cc(C(=O)Nc5ccccc5)ccc4o3)c(=O)oc2c1
absorption maximum (in ClCCl): 442 nm

c1ccc(C2=Nc3cccc4[n+]3[B-](c3ccccc3)(N2)NC(c2ccccc2)=N4)cc1
absorption maximum (in ClCCl): 440 nm

C(#Cc1ccc(C#Cc2ccc(C#Cc3ccccc3)cc2)cc1)c1ccccc1
absorption maximum (in ClC(Cl)Cl): 345 nm

Cc1ccc(-c2cc(-c3ccccc3Cl)c3c(N)nc(N4CCCC4)c(C#N)c3n2)cc1
absorption maximum (in CC#N): 414 nm | absorption maximum (in CC(C)=O): 422 nm | absorption maximum (in CC(C)O): 414 nm | absorption maximum (in CO): 416 nm | absorption maximum (in ClC(Cl)Cl): 418 nm | absorption maximum (in ClCCl): 422 nm | absorption maximum (in c1ccccc1): 426 nm

N#Cc1c(/C=C/c2ccc(N(c3ccccc3)c3ccccc3)cc2)cc(-c2ccccc2)cc1N1CCCCC1
absorption maximum (in CS(C)=O): 398 nm

c1ccc(-c2nc(-c3ccccc3)nc(-c3ccc(N4c5ccccc5C5(c6ccccc64)c4ccccc4C4(c6ccccc6Sc6ccccc64)c4ccccc45)cc3)n2)cc1
absorption maximum (in Cc1ccccc1): 394.63 nm

CC1(C)C2=[N+](CCCCCC(=O)NCNC(=O)CCCCCN3/C(=C/C=C/C=C/C=C/2)C(C)(C)c2cc(S(=O)(=O)[O-])ccc23)c2ccc(S(=O)(=O)[O-])cc21
absorption maximum (in CO): 754 nm

N#CC(/N=C/c1c(O)ccc2ccccc12)=C(C#N)/N=C/c1c(O)ccc2ccccc12
absorption maximum (in CC#N): 520 nm

O=S(=O)(c1ccc(N(c2ccccc2)c2ccccc2)cc1)c1ccc(S(=O)(=O)c2ccc(N(c3ccccc3)c3ccccc3)cc2)cc1
absorption maximum (in Cc1ccccc1): 354 nm

CCCCCCOc1cc(C=C(C#N)C#N)c(OCCCCCC)cc1C=C(C#N)C#N
absorption maximum (in ClCCl): 477 nm

CCN(CC)c1ccc2cc(/C=C/C(=O)/C=C(O)/C=C/c3cc4ccc(N(CC)CC)cc4oc3=O)c(=O)oc2c1
absorption maximum (in C1CCOC1): 518 nm | absorption maximum (in C1COCCO1): 514 nm | absorption maximum (in CC#N): 521 nm | absorption maximum (in CC(C)=O): 519 nm | absorption maximum (in CCOC(C)=O): 514 nm | absorption maximum (in CN(C)C=O): 527 nm | absorption maximum (in CS(C)=O): 540 nm | absorption maximum (in Cc1ccccc1): 518 nm | absorption maximum (in ClC(Cl)Cl): 520 nm | absorption maximum (in ClCCl): 523 nm

N#Cc1c(-c2ccccc2)cc(N2c3ccccc3Oc3ccccc32)cc1-c1ccccc1
absorption maximum (in C1CCCCC1): 398 nm

Cc1cc(N2c3ccccc3[Si](c3ccccc3)(c3ccccc3)c3ccccc32)c(C)cc1-c1nc(-c2ccccc2)nc(-c2ccccc2)n1
absorption maximum (in Cc1ccccc1): 365.47 nm

CCC1=C(C)C2=Cc3c(I)c(I)cn3[B-](F)(F)[N+]2=C1C
absorption maximum (in C1CCCCC1): 527.5 nm | absorption maximum (in CC(C)=O): 509 nm | absorption maximum (in CCO): 517.5 nm | absorption maximum (in CCOC(C)=O): 515 nm | absorption maximum (in CO): 513 nm | absorption maximum (in OCC(F)(F)F): 501 nm

Cc1cccc(C)c1N1C(c2ccccc2)=Cc2ccc3ccccc3[n+]2[B-]1(F)F
absorption maximum (in ClCCl): 447 nm

CC1(C)c2ccccc2N(c2ccc(-c3nc([C@]45CC6CC(C[C@@H](C6)C4)C5)nc([C@]45C[C@H]6C[C@@H](C[C@H](C6)C4)C5)n3)cc2)c2ccccc21
absorption maximum (in Cc1ccccc1): 367.8 nm

COc1ccc(-c2csc(/C(C#N)=C/c3ccc([N+](=O)[O-])cc3)n2)cc1
absorption maximum (in CC#N): 399 nm

CC(C)(C)c1cc2c(c(C(C)(C)C)c1)O[B-](F)(F)[n+]1c-2nc(-c2ccccc2)c2ccccc21
absorption maximum (in Cc1ccccc1): 410 nm
